Results published in US7696129B2, “Substituted aromatic amide derivative, intermediate thereof, agrohorticultural insecticide containing thereof and method for the use thereof” (Nihon Nohyaku Co., Ltd., priority 2001, dated 2010).

Legend:
Assay type in all cases: in vivo
[1] = system: Diamond Back Moth (Plutella xylostella); experiment: Test Example 1: insecticidal effect on diamond back moth, immersion of Chinese cabbage seedling with eggs; details: 50 ppm, seedling with eggs immersed about 30 seconds, 25° C., six days after the immersion
Excerpt: Insecticidal Effect on Diamond Back Moth (Plutella xylostella)
Adult diamond back moths were released and allowed to oviposit on a Chinese cabbage seedling. Two days after the release, the seedling having the eggs deposited thereon was immersed for about 30 seconds in a liquid chemical prepared by diluting a preparation containing each compound listed in Tables 4 to 9 as an active ingredient to adjust the concentration to 50 ppm. After air-dryness, it was allowed to stand in a room thermostatted at 25° C. Six days after the immersion, the hatched insects were counted. The mortality was calculated according to the following equation and the insecticidal effect was judged according to the criterion shown below. The test was carried out with triplicate groups of 10 insects.

[2] = system: Common Cutworm (Spodoptera litura); experiment: Test Example 2: insecticidal effect on common cutworm, cabbage leaf immersion; details: 50 ppm, cabbage leaf immersed about 30 seconds, second-instar larvae, 25° C., eight days after the inoculation
Excerpt: Insecticidal Effect on Common Cutworm (Spodoptera litura)
A piece of cabbage leaf (cultivar; Shikidori) was immersed for about 30 seconds in a liquid chemical prepared by diluting a preparation containing each compound listed in Tables 4 to 9 as an active ingredient to adjust the concentration to 50 ppm. After air-dryness, it was placed in a plastic Petri dish with a diameter of 9 cm and inoculated with second-instar larvae of common cutworm, after which the dish was closed and then allowed to stand in a room thermostatted at 25° C. Eight days after the inoculation, the dead and alive were counted. The mortality was calculated according to the following equation and the insecticidal effect was judged according to the criterion shown in Test Example 1. The test was carried out with triplicate groups of 10 insects.

[3] = system: Smaller Tea Tortrix (Adxophyes sp.); experiment: Test Example 3: insecticidal effect on smaller tea tortrix, tea leaf immersion; details: 50 ppm, tea leaves immersed about 30 seconds, larvae, 25° C., humidity 70%, eight days after the inoculation
Protocol: Insecticidal Effect on Smaller Tea Tortrix (Adxophyes sp.)
Tea leaves were immersed for about 30 seconds in a liquid chemical prepared by diluting a preparation containing each compound listed in Tables 1 to 3 as an active ingredient to adjust the concentration to 50 ppm. After air-dryness, the tea leaves were placed in a plastic Petri dish with a diameter of 9 cm and inoculated with larvae of smaller tea tortrix, after which the dish was allowed to stand in a room thermostatted at 25° C. and having a humidity of 70%. Eight days after the inoculation, the dead and alive were counted and the insecticidal effect was judged according to the criterion shown in Test Example 1. The test was carried out with triplicate groups of 10 insects.

Compound	Test Example 1 (insecticidal effect, mortality criterion) [1]	Test Example 2 (insecticidal effect, mortality criterion) [2]	Test Example 3 (insecticidal effect, mortality criterion) [3]
Cc1cc(C(C(F)(F)F)C(F)(F)F)ccc1NC(=O)c1ccccc1C(=O)NC(C)C [5-11]	A (Mortality 100%)	E (Mortality 49% or less)	A (Mortality 100%)
CSCC(C)(C)NC(=O)c1c(Cl)cccc1C(=O)Nc1ccc(C(C(F)(F)F)C(F)(F)F)cc1C [5-19]	A (Mortality 100%)	A (Mortality 100%)	A (Mortality 100%)
CSCC(C)(C)NC(=O)c1c(I)cccc1C(=O)Nc1c(C)cc(C(C(F)(F)F)C(F)(F)F)cc1C [5-68]	A (Mortality 100%)	E (Mortality 49% or less)	E (Mortality 49% or less)
Cc1ccc(CNC(=O)OCC(C)NC(=O)c2c(I)cccc2C(=O)Nc2ccc(C(C(F)(F)F)C(F)(F)F)cc2C)cc1 (centres unmarked) [5-36]	A (Mortality 100%)	E (Mortality 49% or less)	A (Mortality 100%)
CC(C)(CS(C)(=O)=O)NC(=O)c1c(I)cccc1C(=O)Nc1ccc(C(C(F)(F)F)C(F)(F)F)nc1 [8-3]	A (Mortality 100%)	E (Mortality 49% or less)	A (Mortality 100%)
CSCC(C)(C)NC(=O)c1c(I)cccc1C(=O)Nc1ccc(CC(F)(F)F)cc1C [5-1]	A (Mortality 100%)	A (Mortality 100%)	A (Mortality 100%)
CSCC(C)(C)NC(=O)c1c(I)cccc1C(=O)Nc1ccc(CC(F)(F)C(F)(F)F)cc1C [5-5]	A (Mortality 100%)	A (Mortality 100%)	A (Mortality 100%)
CSCC(C)(C)NC(=O)c1c(I)cccc1C(=O)Nc1ccc(C(C(F)(F)F)C(F)(F)C(F)(F)F)cc1C (centres unmarked) [5-71]	A (Mortality 100%)	A (Mortality 100%)	A (Mortality 100%)
Cc1cc(C(C(F)(F)F)C(F)(F)F)c(F)cc1NC(=O)c1cccc(I)c1C(=O)NC(C)C [5-62]	A (Mortality 100%)	A (Mortality 100%)	A (Mortality 100%)
C[S+]([O-])CC(C)(C)NC(=O)c1c(I)cccc1C(=O)Nc1ccc(C(C(F)(F)F)C(F)(F)F)cc1I (centres unmarked) [5-56]	A (Mortality 100%)	C (Mortality 89-80%)	A (Mortality 100%)
CSCC(C)(C)NC(=O)c1c(C(=O)Nc2ccc(C(C(F)(F)F)C(F)(F)F)cc2C)cccc1C(F)(F)F [5-41]	A (Mortality 100%)	A (Mortality 100%)	A (Mortality 100%)
CSCC(C)(C)NC(=O)c1ccccc1C(=O)Nc1ccc(C(C(F)(F)F)C(F)(F)F)cc1C [5-13]	A (Mortality 100%)	E (Mortality 49% or less)	E (Mortality 49% or less)
CSCC(C)(C)NC(=O)c1c(I)cccc1C(=O)Nc1ccc(C(C(F)(F)F)C(F)(F)F)cc1C(C)(C)C [5-48]	A (Mortality 100%)	E (Mortality 49% or less)	E (Mortality 49% or less)
CSCC(C)(C)NC(=O)c1c(I)cccc1C(=O)Nc1ccc(CC(F)(F)C(F)(F)F)cc1F [5-6]	A (Mortality 100%)	A (Mortality 100%)	A (Mortality 100%)
Cc1cc(C(C(F)(F)F)C(F)(F)F)ccc1NC(=O)c1cccc(I)c1C(=O)NC(C)COC(=O)NCc1ccc(Cl)cc1 (centres unmarked) [5-37]	A (Mortality 100%)	A (Mortality 100%)	A (Mortality 100%)
CON=CC(C)(C)NC(=O)c1c(Br)cccc1C(=O)Nc1ccc(C(C(F)(F)F)C(F)(F)F)cc1C [5-20]	A (Mortality 100%)	A (Mortality 100%)	A (Mortality 100%)
Cc1nc(C(C(F)(F)F)C(F)(F)F)ccc1NC(=O)c1cccc(I)c1C(=O)NC(C)COC(=O)NCc1ccccc1 (centres unmarked) [8-27]	A (Mortality 100%)	E (Mortality 49% or less)	E (Mortality 49% or less)
CSCC(C)(C)NC(=O)c1c(I)cccc1C(=O)Nc1ccc(CC(F)(F)F)cc1F [5-3]	A (Mortality 100%)	A (Mortality 100%)	A (Mortality 100%)
CSCC(C)(C)NC(=O)c1c(I)cccc1C(=O)Nc1ccc(C(C(F)(F)F)C(F)(F)F)cc1 [5-10]	A (Mortality 100%)	A (Mortality 100%)	A (Mortality 100%)
Cc1nc(C(C(F)(F)F)C(F)(F)F)ccc1NC(=O)c1cccc([N+](=O)[O-])c1C(=O)NC(C)(C)CS(C)(=O)=O [8-9]	A (Mortality 100%)	D (Mortality 79-50%)	E (Mortality 49% or less)
CSCC(C)NC(=O)c1c(I)cccc1C(=O)Nc1ccc(C(C(F)(F)F)C(F)(F)F)cc1C (centres unmarked) [5-39]	A (Mortality 100%)	A (Mortality 100%)	A (Mortality 100%)
Cc1cc(C(C(F)(F)F)C(F)(F)F)ccc1NC(=O)c1cccc(I)c1C(=O)NC(C)COC(=O)NCc1ccccc1 (centres unmarked) [5-33]	A (Mortality 100%)	A (Mortality 100%)	A (Mortality 100%)
CSCC(C)(C)NC(=O)c1c(I)cccc1C(=O)Nc1ccc(C(C(F)(F)F)C(F)(F)F)cc1I [5-55]	A (Mortality 100%)	A (Mortality 100%)	A (Mortality 100%)
CSCC(C)(C)NC(=O)c1c(I)cccc1C(=O)Nc1ccc(C(C(F)(F)F)C(F)(F)F)cc1Br [5-53]	A (Mortality 100%)	A (Mortality 100%)	A (Mortality 100%)
Cc1ccccc1CNC(=O)OCC(C)NC(=O)c1c(I)cccc1C(=O)Nc1ccc(C(C(F)(F)F)C(F)(F)F)cc1C (centres unmarked) [5-34]	A (Mortality 100%)	A (Mortality 100%)	A (Mortality 100%)
Cc1cc(C(C(F)(F)F)C(F)(F)F)ccc1NC(=O)c1cccc(I)c1C(=O)NC(C)(C)CC(C)(C)C [5-23]	A (Mortality 100%)		A (Mortality 100%)
